Data reported in patent US7220732B2, “Compounds useful as photodynamic therapeutic agents” (priority 2002, dated 2007).
Read-outs that look alike come from different tables or passages of the source.

What was measured:
[1] = Spectroscopic absorbance properties; assay type: physicochemical
From the text: (§1) The absorption bands of each photosensitiser are relatively insensitive to solvent changes with solutions in water/Cremophor resulting in a further bathochromic shift of ˜10 nm (Table 1). Excitation of chloroform solutions of the 2a and 4a at 635 nm gave a fluorescence band at 672 and 673 nm respectively (FIG. 2, Table 2). […] The reduction in fluorescence quantum yield in the series would imply more efficient population of the triplet excited state which would benefit singlet oxygen production. The ability of 2 and 4 to produce singlet oxygen would be a prerequisite to them being potential PDT agents.

[2] = Fluorescence emission and fluorescence quantum yield; assay type: physicochemical; settings: for Φf (fluorescence quantum yield): relative to magnesium tetra-tert-butylphthalocyanine in CHCl3, room temperature
From the text: as §1

HeLa cells = assay: Light/dark cytotoxicity study (MTT) in HeLa cells; assay type: cell-based
Procedure: (§2) MRC5 and HeLa cell cultures were maintained in MEM (minimum essential medium) containing 10% (v/v) foetal calf serum (FCS), 1% (v/v) non-essential amino acids, 2 μg/ml Fungizone (Trade Mark) (amphotericin B), 50 μg/ml penicillin, 50 μg/ml streptomycin, 20 mM HEPES and 1% (v/v) L-Glutamine. Cells were passaged at least twice before use in the cytotoxicity assays.
(§3) Stock haematoporphyrin water-dimethyl sulphoxide (DMSO) (100:1 (v/v)) solutions were diluted with MEM containing 10% FCS. Cells were seeded at 5,000 cells/well in 96-well plates and incubated for 24 hr at 37° C. The 24 hour incubation period was chosen having regard to the slower uptake of haernatoporphyrin in the absence of Cremophor, when compared to the compounds of the present invention in the presence of Cremophor (see below). Cells were then incubated with haematoporphyrin in the dark for 24 hr at 37° C. The haematoporphyrin laden culture medium was then removed by filtration, the cells were washed with PBS and fresh culture medium was added to each well. A 500 W light source, passed through a red glass and water filter barrier, (to ensure cells are irradiated with light of wavelength greater than 570 nm) was used to irradiate the plates for both 15 and 30 min. Following irradiation, the cells were incubated for a further 48 hr at 37° C. before being assessed for cell survival.
(§4) Stock 2a or 2b water-Cremophor EL (Trade Mark—CAS 61791-12-6) (1:250 (v/v)) solutions were diluted with MEM containing 10% FCS. Cells were seeded at 5,000 cells/well in 96-well plates and incubated for 24 hr at 37° C. Cells were then incubated with 2a or 2b in the dark for 3 hr at 37° C. The 3 hour incubation period was chosen to reflect the faster cellular uptake of 2a or 2b in the presence of Cremophor, when compared to the cellular uptake of haematoporphyrins in the absence of Cremophor. The 2a or 2b laden culture medium was then removed by filtration, the cells were washed with PBS and fresh culture medium was added to each well. The plates were then irradiated using a 500 W light source passed through a red glass and water filter barrier, (thereby ensuring cells are irradiated with light of wavelength greater than 570 nm) for both 15 and 30 min.
(§5) Following irradiation, the cells were incubated for a further 48 hr at 37° C. before being assessed for cell survival. The dark toxicity of compounds of the present invention was also assessed in each experiment.
(§6) Cell viability was estimated using the standard MTT (microtiter tetrazolium) assay. This assay measures mitochondrial dehydrogenase activity and is based on the reduction of a soluble yellow tetrazolium salt to a blue, insoluble MTT formazan product by this enzyme. The subsequent colour change produced by viable cells was quantified using a plate reader (VICTOR^2 1420 multilabel HTS counter, Wallac). As mentioned above under the headings “Cytotoxicity”, the cells are incubated at 37° C. for 48 hours, following which the MTT solution was added to the cells at a final concentration of 0.5 mg/ml and incubated for 3 hr at 37° C. The MTT solution was then removed by filtration and 100 μl DMSO was added to each well in order to lyse the cells and release the formazan dye. The plates were read 1 hr later at 540 nm.
(§7) Prism (Trade Mark) […] was used to graph the data obtained from the MTT assays and the uptake/efflux experiments. This programme allows non-linear regression analysis and the generation of sigmoidal dose response curves. Prism (Trade Mark) also automatically calculates EC50 values.
(§8) Light toxicity assays were also carried out as described above under “Assay methods” in HeLa and MRC5 cells for haematoporphyrin (FIGS. 9 and 10), 2a (FIGS. 11 and 12) and 2b (FIGS. 13 and 14).

MRC5 cells = assay: Light/dark cytotoxicity study (MTT) in MRC5 cells; assay type: cell-based
Procedure: as §2, §3, §4, §5, §6, §7, §8

[3] = Water/Cremophor (100:1), room temperature
[4] = CHCl3, room temperature, excitation at 635 nm

ε (molar extinction coefficient) ([1]; CHCl3, room temperature) | λmax (absorbance) ([1]; CHCl3, room temperature) [nm] | λmax (absorbance) [1, 3] [nm] | λ em (fluorescence band) [2, 4] [nm] | fwhm (full width at half maximum) ([1]; CHCl3, room temperature) [nm] | fwhm (full width at half maximum) [1, 3] [nm] | λ em (fluorescence band) [2, 3] [nm] | Φf (fluorescence quantum yield) [2] | SMILES | EC50 (HeLa cells; Homo sapiens, light or radiation study, 0 J/cm^2 light (no light), read-out: EC50 (dark toxicity)) [µM] | EC50 (HeLa cells; Homo sapiens, light or radiation study, 0.25 h, 8 J/cm^2 light (15 mins from a 500 W light source), read-out: EC50) [µM] | EC50 (HeLa cells; Homo sapiens, light or radiation study, 0.5 h, 16 J/cm^2 light (30 mins from a 500 W light source), read-out: EC50) [µM] | EC50 (MRC5 cells; Homo sapiens, light or radiation study, 0.25 h, MRC5, 8 J/cm^2 light (15 mins from a 500 W light source), read-out: EC50) [µM] | EC50 (MRC5 cells; Homo sapiens, light or radiation study, 0.5 h, MRC5, 16 J/cm^2 light (30 mins from a 500 W light source), read-out: EC50) [µM] | EC50 (MRC5 cells; Homo sapiens, light or radiation study, MRC5, 0 J/cm^2 light (no light), read-out: EC50 (dark toxicity)) [µM] | EC50 (HeLa cells; 0 J/cm^2 light (no light), read-out: EC50 (dark toxicity)) [µM] | EC50 (HeLa cells; 8 J/cm^2 light (15 mins from a 500 W light source), read-out: EC50) [µM] | EC50 (HeLa cells; 16 J/cm^2 light (30 mins from a 500 W light source), read-out: EC50) [µM] | EC50 (dark toxicity) (MRC5 cells; MRC5, 0 J/cm^2 light (no light)) | EC50 (MRC5 cells; MRC5, 8 J/cm^2 light (15 mins from a 500 W light source), read-out: EC50) [µM] | EC50 (MRC5 cells; MRC5, 16 J/cm^2 light (30 mins from a 500 W light source), read-out: EC50) [µM]
74,000 M^−1cm^−1 | 658 | 667 | 680 | – | – | – | – | F[B-]1(F)n2c(-c3ccccc3)cc(-c3ccc(Br)cc3)c2N=C2C(c3ccc(Br)cc3)=CC(c3ccccc3)=[N+]21 [Compound 5a] | – | – | – | – | – | – | – | – | – | – | – | –
79,000 M^−1cm^−1 | 650 | 651 | 673 | 47 | 57 | 679 | 0.012 | F[B-]1(F)n2c(c(-c3ccccc3)c(Br)c2-c2ccccc2)N=C2C(c3ccccc3)=C(Br)C(c3ccccc3)=[N+]21 [Compound 4a] | – | – | – | – | – | – | – | – | – | – | – | –
– | – | – | – | – | – | – | – | CC1=C(CCC(=O)O)c2cc3[nH]c(cc4nc(cc5[nH]c(cc1n2)c(C)c5C(C)O)C(C)=C4C(C)O)c(C)c3CCC(=O)O (stereo not shown) [haematoporphyrin, reference compound] | 77 | 15 | 16 | 42 | 29 | 1400 | – | – | – | – | – | –
85,000 M^−1cm^−1 | 688 | 696 | 715 | 55 | 57 | 727 | 0.36 | COc1ccc(C2=[N+]3C(=Nc4c(-c5ccccc5)cc(-c5ccc(OC)cc5)n4[B-]3(F)F)C(c3ccccc3)=C2)cc1 [Compound 2b] | – | – | – | – | – | – | 62 | 53 | 25 | un-measurable | 220 | 22
75,000 M^−1cm^−1 | 679 | 685 | 714 | 57 | 86 | 719 | 0.10 | COc1ccc(C2=[N+]3C(=Nc4c(-c5ccccc5)c(Br)c(-c5ccc(OC)cc5)n4[B-]3(F)F)C(c3ccccc3)=C2Br)cc1 [Compound 4b] | – | – | – | – | – | – | – | – | – | – | – | –
